Assay results published in ChEMBL document CHEMBL2375306, “Antimicrobial peptides containing unnatural amino acid exhibit potent bactericidal activity against ESKAPE pathogens” (Bioorg Med Chem, 2013).
≈ marks a conversion by molar mass, not a printed value. Numbered stars: 1 amine (or outer) side, 2 acyl side, 3 side chain; on linkers, the order of the positions; unused ones are H or OH. Square brackets hold non-standard residues; d marks the D form. Peptide text beside a SMILES is read from it. * marks the point of attachment. ξ: configuration not given here. X6 = NCCCC[C@H](NC(=O)[C@H](CCCCN)NC(=O)[C@H](CCCCN)NC(=O)[C@H](CCCCN)NCCC(=O)[C@@H]1Cc2ccccc2CN1*)C(N)=O; Pro(3ξ,4ξ-(CH2)4) = O=C(O)[C@H]1NCC2CCCCC21; Ethylenediamine = C(CN[*:2])N[*:1]; Tic = O=C(O)[C@@H]1Cc2ccccc2CN1; X4 = CC(=O)NC(=O)[C@H](CCCN)N*; X1 = CC(=O)NC(=O)[C@H](CN)N*; Orn = NCCC[C@H](N)C(=O)O; ξE = NC(CCC(=O)O)C(=O)O; Dap = NC[C@H](N)C(=O)O; ξL = CC(C)CC(N)C(=O)O

What was measured:
Type in all cases: functional
Pseudomonas aeruginosa = assay: Antibacterial activity against Pseudomonas aeruginosa PAO1 after 24 hrs by broth microdilution method; settings: PAO1, 24 h
Klebsiella pneumoniae = assay: Antibacterial activity against Klebsiella pneumoniae BAMS clinical isolate 07-18 after 24 hrs by broth microdilution method; settings: BAMS clinical isolate 07-18, 24 h
Staphylococcus aureus = assay: Antibacterial activity against methicillin-sensitive Staphylococcus aureus UAMS-1 after 24 hrs by broth microdilution method; settings: UAMS-1, 24 h
Klebsiella aerogenes = assay: Antibacterial activity against Enterobacter aerogenes after 24 hrs by broth microdilution method
Acinetobacter baumannii = assay: Antibacterial activity against Acinetobacter baumannii WRAIR clinical isolate 13 after 24 hrs by broth microdilution method; settings: WRAIR clinical isolate 13, 24 h
Enterococcus faecium = assay: Antibacterial activity against Enterococcus faecium MMC4 after 24 hrs by broth microdilution method; settings: MMC4, 24 h

Row | Compound | MIC (Pseudomonas aeruginosa) [µg/mL] | MIC (Klebsiella pneumoniae) [µg/mL] | MIC (Staphylococcus aureus) [µg/mL] | MIC (Klebsiella aerogenes) [µg/mL] | MIC (Acinetobacter baumannii) [µg/mL] | MIC (Enterococcus faecium) [µg/mL] | MBC (Pseudomonas aeruginosa) [µg/mL] | MBC (Klebsiella pneumoniae) [µg/mL] | MBC (Staphylococcus aureus) [µg/mL] | MBC (Klebsiella aerogenes) [µg/mL] | MBC (Acinetobacter baumannii) [µg/mL] | MBC (Enterococcus faecium) [µg/mL]
1 | CC(=O)NCC(=O)N[C@@H](Cc1ccccc1)C(=O)N1Cc2ccccc2C[C@H]1C(=O)N1CC2CCCCC2[C@H]1C(=O)NCC(=O)N[C@@H](CCCCN)C(=O)N1Cc2ccccc2C[C@H]1C(=O)N1CC2CCCCC2[C@H]1C(=O)NCC(=O)N[C@@H](Cc1ccccc1)C(=O)N1Cc2ccccc2C[C@H]1C(=O)N1CC2CCCCC2[C@H]1C(=O)NCC(=O)N[C@@H](CCCCN)C(=O)N1Cc2ccccc2C[C@H]1C(=O)CCN[C@@H](CCCCN)C(=O)N[C@@H](CCCCN)C(=O)N[C@@H](CCCCN)C(=O)N[C@@H](CCCCN)C(N)=O (stereo partly drawn) (Ac-GF[Tic][Pro(3ξ,4ξ-(CH2)4)]GK[Tic][Pro(3ξ,4ξ-(CH2)4)]GF[Tic][Pro(3ξ,4ξ-(CH2)4)]GK-X6) | > 100 | > 100 | > 100 | > 100 | 12.5 (≈ 5.06 µM) | 12.5 (≈ 5.06 µM) | > 100 | > 100 | > 100 | > 100 | 25 (≈ 10.1 µM) | 50 (≈ 20.3 µM)
2 | CC(=O)NCC(=O)N[C@@H](Cc1ccccc1)C(=O)N1Cc2ccccc2C[C@H]1C(=O)N1CC2CCCCC2[C@H]1C(=O)NCC(=O)N[C@@H](CCCNC(=N)N)C(=O)N1Cc2ccccc2C[C@H]1C(=O)N1CC2CCCCC2[C@H]1C(=O)NCC(=O)N[C@@H](Cc1ccccc1)C(=O)N1Cc2ccccc2C[C@H]1C(=O)N1CC2CCCCC2[C@H]1C(=O)NCC(=O)N[C@@H](CCCNC(=N)N)C(=O)N1Cc2ccccc2C[C@H]1C(=O)N[C@@H](CCCNC(=N)N)C(=O)N[C@@H](CCCNC(=N)N)C(=O)N[C@@H](CCCNC(=N)N)C(=O)N[C@@H](CCCNC(=N)N)C(N)=O (stereo partly drawn) (Ac-GF[Tic][Pro(3ξ,4ξ-(CH2)4)]GR[Tic][Pro(3ξ,4ξ-(CH2)4)]GF[Tic][Pro(3ξ,4ξ-(CH2)4)]GR[Tic]RRRR-NH2) | 100 (≈ 38.3 µM) | 50 (≈ 19.2 µM) | 50 (≈ 19.2 µM) | 50 (≈ 19.2 µM) | 6.25 (≈ 2.4 µM) | 6.25 (≈ 2.4 µM) | > 100 | 100 (≈ 38.3 µM) | > 100 | 50 (≈ 19.2 µM) | 12.5 (≈ 4.79 µM) | 25 (≈ 9.58 µM)
3 | CC(=O)NCC(=O)N[C@@H](Cc1ccccc1)C(=O)N1Cc2ccccc2C[C@H]1C(=O)N1CC2CCCCC2[C@H]1C(=O)NCC(=O)N[C@@H](CN)C(=O)N1Cc2ccccc2C[C@H]1C(=O)N1CC2CCCCC2[C@H]1C(=O)NCC(=O)N[C@@H](Cc1ccccc1)C(=O)N1Cc2ccccc2C[C@H]1C(=O)N1CC2CCCCC2[C@H]1C(=O)NCC(=O)N[C@@H](CN)C(=O)N1Cc2ccccc2C[C@H]1C(=O)N[C@@H](CN)C(=O)N[C@@H](CN)C(=O)N[C@@H](CN)C(=O)N[C@@H](CN)C(=O)NC(C)=O (stereo partly drawn) (Ac-GF[Tic][Pro(3ξ,4ξ-(CH2)4)]G[Dap][Tic][Pro(3ξ,4ξ-(CH2)4)]GF[Tic][Pro(3ξ,4ξ-(CH2)4)]G[Dap][Tic][Dap][Dap][Dap]-X1) | 25 (≈ 11.2 µM) | 12.5 (≈ 5.6 µM) | > 100 | 50 (≈ 22.4 µM) | 12.5 (≈ 5.6 µM) | 50 (≈ 22.4 µM) | 25 (≈ 11.2 µM) | 25 (≈ 11.2 µM) | 100 (≈ 44.8 µM) | 50 (≈ 22.4 µM) | 12.5 (≈ 5.6 µM) | 100 (≈ 44.8 µM)
4 | CC(=O)NCC(=O)N[C@@H](Cc1ccccc1)C(=O)N1Cc2ccccc2C[C@H]1C(=O)N1CC2CCCCC2[C@H]1C(=O)NCC(=O)N[C@@H](CCCN)C(=O)N1Cc2ccccc2C[C@H]1C(=O)N1CC2CCCCC2[C@H]1C(=O)NCC(=O)N[C@@H](Cc1ccccc1)C(=O)N1Cc2ccccc2C[C@H]1C(=O)N1CC2CCCCC2[C@H]1C(=O)NCC(=O)N[C@@H](CCCN)C(=O)N1Cc2ccccc2C[C@H]1C(=O)N[C@@H](CCCN)C(=O)N[C@@H](CCCN)C(=O)N[C@@H](CCCN)C(=O)N[C@@H](CCCN)C(=O)NC(C)=O (stereo partly drawn) (Ac-GF[Tic][Pro(3ξ,4ξ-(CH2)4)]G[Orn][Tic][Pro(3ξ,4ξ-(CH2)4)]GF[Tic][Pro(3ξ,4ξ-(CH2)4)]G[Orn][Tic][Orn][Orn][Orn]-X4) | 50 (≈ 20.8 µM) | 50 (≈ 20.8 µM) | 100 (≈ 41.7 µM) | 100 (≈ 41.7 µM) | 6.25 (≈ 2.61 µM) | 12.5 (≈ 5.21 µM) | 50 (≈ 20.8 µM) | 50 (≈ 20.8 µM) | 100 (≈ 41.7 µM) | > 100 | 25 (≈ 10.4 µM) | 50 (≈ 20.8 µM)
5 | CSCC[C@H](NC(=O)C(CC(C)C)NC(=O)[C@H](CCC(=O)O)NC(=O)[C@@H]1C2CCCCC2CN1C(=O)[C@@H]1Cc2ccccc2CN1C(=O)[C@H](CCCCN)NC(=O)CNC(=O)[C@H](CC(C)C)NC(=O)CNC(=O)[C@@H]1C2CCCCC2CN1C(=O)[C@@H]1Cc2ccccc2CN1C(=O)C(CCC(=O)O)NC(=O)[C@H](CCCCN)NC(=O)CNC(=O)[C@H](CC(C)C)NC(=O)CNC(=O)[C@@H]1C2CCCCC2CN1C(=O)[C@@H]1Cc2ccccc2CN1C(=O)[C@H](CCCCN)NC(=O)CNC(C)=O)C(=O)NCC(=O)N[C@@H](CCC(=O)O)C(=O)N[C@@H](CCCNC(=N)N)C(N)=O (stereo partly drawn) (Ac-GK[Tic][Pro(3ξ,4ξ-(CH2)4)]GLGK[ξE][Tic][Pro(3ξ,4ξ-(CH2)4)]GLGK[Tic][Pro(3ξ,4ξ-(CH2)4)]E[ξL]MGER-NH2) | > 100 | > 100 | > 100 | > 100 | > 100 | > 100 | > 100 | > 100 | > 100 | > 100 | > 100 | > 100

More lines, main results first:

Row | MIC (Pseudomonas aeruginosa) [µg/mL] | MIC (Klebsiella pneumoniae) [µg/mL] | MIC (Staphylococcus aureus) [µg/mL] | MIC (Klebsiella aerogenes) [µg/mL] | MIC (Acinetobacter baumannii) [µg/mL] | MIC (Enterococcus faecium) [µg/mL] | Compound | MBC (Pseudomonas aeruginosa) [µg/mL] | MBC (Klebsiella pneumoniae) [µg/mL] | MBC (Staphylococcus aureus) [µg/mL] | MBC (Klebsiella aerogenes) [µg/mL] | MBC (Acinetobacter baumannii) [µg/mL] | MBC (Enterococcus faecium) [µg/mL]
6 | > 100 | 100 (≈ 43.2 µM) | 100 (≈ 43.2 µM) | > 100 | 12.5 (≈ 5.4 µM) | 25 (≈ 10.8 µM) | CC(=O)NCC(=O)N[C@@H](Cc1ccccc1)C(=O)N1Cc2ccccc2C[C@H]1C(=O)N1CC2CCCCC2[C@H]1C(=O)NCC(=O)N[C@@H](CCCCN)C(=O)N1Cc2ccccc2C[C@H]1C(=O)N1CC2CCCCC2[C@H]1C(=O)NCC(=O)N[C@@H](Cc1ccccc1)C(=O)N1Cc2ccccc2C[C@H]1C(=O)N1CC2CCCCC2[C@H]1C(=O)NCC(=O)N[C@@H](CCCCN)C(=O)N1Cc2ccccc2C[C@H]1C(=O)N[C@@H](CCCCN)C(=O)N[C@@H](CCCCN)C(=O)N[C@@H](CCCCN)C(N)=O (stereo partly drawn) (Ac-GF[Tic][Pro(3ξ,4ξ-(CH2)4)]GK[Tic][Pro(3ξ,4ξ-(CH2)4)]GF[Tic][Pro(3ξ,4ξ-(CH2)4)]GK[Tic]KKK-NH2) | > 100 | > 100 | > 100 | > 100 | 50 (≈ 21.6 µM) | 100 (≈ 43.2 µM)
7 | 50 (≈ 20.1 µM) | 25 (≈ 10.1 µM) | 50 (≈ 20.1 µM) | 50 (≈ 20.1 µM) | 6.25 (≈ 2.52 µM) | 12.5 (≈ 5.03 µM) | CC(=O)NCC(=O)N[C@@H](Cc1ccccc1)C(=O)N1Cc2ccccc2C[C@H]1C(=O)N1CC2CCCCC2[C@H]1C(=O)NCC(=O)N[C@@H](CCCCN)C(=O)N1Cc2ccccc2C[C@H]1C(=O)N1CC2CCCCC2[C@H]1C(=O)NCC(=O)N[C@@H](Cc1ccccc1)C(=O)N1Cc2ccccc2C[C@H]1C(=O)N1CC2CCCCC2[C@H]1C(=O)NCC(=O)N[C@@H](CCCCN)C(=O)N1Cc2ccccc2C[C@H]1C(=O)N[C@@H](CCCCN)C(=O)N[C@@H](CCCCN)C(=O)N[C@@H](CCCCN)C(=O)N[C@@H](CCCCN)C(=O)NCCN (stereo partly drawn) (Ac-GF[Tic][Pro(3ξ,4ξ-(CH2)4)]GK[Tic][Pro(3ξ,4ξ-(CH2)4)]GF[Tic][Pro(3ξ,4ξ-(CH2)4)]GK[Tic]KKKK-Ethylenediamine) | 100 (≈ 40.3 µM) | 50 (≈ 20.1 µM) | > 100 | 50 (≈ 20.1 µM) | 6.25 (≈ 2.52 µM) | 25 (≈ 10.1 µM)
8 | 100 (≈ 41 µM) | 100 (≈ 41 µM) | > 100 | 100 (≈ 41 µM) | 6.25 (≈ 2.56 µM) | 25 (≈ 10.2 µM) | CC(=O)NCC(=O)N[C@@H](Cc1ccccc1)C(=O)N1Cc2ccccc2C[C@H]1C(=O)N1CC2CCCCC2[C@H]1C(=O)NCC(=O)N[C@@H](CCCCN)C(=O)N1Cc2ccccc2C[C@H]1C(=O)N1CC2CCCCC2[C@H]1C(=O)NCC(=O)N[C@@H](Cc1ccccc1)C(=O)N1Cc2ccccc2C[C@H]1C(=O)N1CC2CCCCC2[C@H]1C(=O)NCC(=O)N[C@@H](CCCCN)C(=O)N1Cc2ccccc2C[C@H]1C(=O)N[C@@H](CCCCN)C(=O)N[C@@H](CCCCN)C(=O)N[C@@H](CCCCN)C(=O)N[C@@H](CCCCN)C(N)=O (stereo partly drawn) (Ac-GF[Tic][Pro(3ξ,4ξ-(CH2)4)]GK[Tic][Pro(3ξ,4ξ-(CH2)4)]GF[Tic][Pro(3ξ,4ξ-(CH2)4)]GK[Tic]KKKK-NH2) | 100 (≈ 41 µM) | 100 (≈ 41 µM) | > 100 | 100 (≈ 41 µM) | 25 (≈ 10.2 µM) | 50 (≈ 20.5 µM)
9 | > 100 | > 100 | > 100 | > 100 | 25 (≈ 9.78 µM) | 25 (≈ 9.78 µM) | CC(=O)NCC(=O)N[C@@H](Cc1ccccc1)C(=O)N1Cc2ccccc2C[C@H]1C(=O)N1CC2CCCCC2[C@H]1C(=O)NCC(=O)N[C@@H](Cc1c[nH]c2ccccc12)C(=O)N1Cc2ccccc2C[C@H]1C(=O)N1CC2CCCCC2[C@H]1C(=O)NCC(=O)N[C@@H](Cc1ccccc1)C(=O)N1Cc2ccccc2C[C@H]1C(=O)N1CC2CCCCC2[C@H]1C(=O)NCC(=O)N[C@@H](Cc1c[nH]c2ccccc12)C(=O)N1Cc2ccccc2C[C@H]1C(=O)N[C@@H](CCCCN)C(=O)N[C@@H](CCCCN)C(=O)N[C@@H](CCCCN)C(=O)N[C@@H](CCCCN)C(N)=O (stereo partly drawn) (Ac-GF[Tic][Pro(3ξ,4ξ-(CH2)4)]GW[Tic][Pro(3ξ,4ξ-(CH2)4)]GF[Tic][Pro(3ξ,4ξ-(CH2)4)]GW[Tic]KKKK-NH2) | > 100 | > 100 | > 100 | > 100 | 100 (≈ 39.1 µM) | 100 (≈ 39.1 µM)
